Structures can show the parent of a compound that is named as a salt. Where two headings read alike, the source gives them in different places.
How the values were obtained:
[1] = test system: methicillin-susceptible S. aureus (MSSA), MRSA and mutants thereof; assay: MIC measurement, Test Example 3 (MSSA, MRSA and sequential gyrA/grlA quinolone-resistant mutants); type: cell-based, Staphylococcus aureus; settings: Staphylococcus aureus
In short: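 Clinical isolates and stepwise gyrA/grlA quinolone-resistant mutants grown overnight at 37° C in TSB, adjusted to A578 0.3 in CAMHB, diluted 500-fold and mixed 1:1 with drug dilutions in CAMHB.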

[2] = test system: VISA clinical isolates of MRSA (VI-MRSA) and of MSSA (VI-MSSA); assay: microbe, parasite or virus in culture; type: cell-based, Staphylococcus aureus
In short: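 Strains were grown overnight at 37° C in TSB, adjusted in CAMHB to 0.3 absorbance at 578 nm and diluted 500-fold before equal-volume addition to compound dilutions.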

Enterococcus faecalis = assay: MIC measurement, Test Example 6 (enterococcus); type: cell-based; settings: Enterococcus faecalis, read-out: MIC
In short: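 E. faecalis strains, including vancomycin-resistant NCTC12201 and NCTC12203, pre-grown overnight in TSB at 37° C, set to A578 0.3 in CAMHB, then diluted 500-fold.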

VRSA clinical isolates = assay: microbe, parasite or virus in culture; type: cell-based; settings: Staphylococcus aureus
Description: Each of the bacterial strains listed in Table 1-1 was shake-cultured at 37° C. overnight in 4 mL of a medium (Tryptical Soy Broth: TSB, product of Becton Dickinson and Company). FDA209P was used as a control.
After completion of culturing, the resultant culture was suspended in a cation-adjusted Mueller Hinton Broth (CAMHB, product of Becton Dickinson and Company). Then, the obtained bacterial culture was adjusted in absorbance with the CAMHB so that the absorbance at 578 nm of the bacterial culture was adjusted to 0.3 measured by an absorption spectrometer. In addition, the resultant bacterial culture was 500-fold diluted with the CAMHB.
Each of the 500-fold diluted, pre-cultured bacterial cultures was added at 50 μL/well to the CAMHB containing the quinolones and the nybomycins at various concentrations (50 μL/well), followed by statically culturing at 37° C. overnight.
After completion of culturing, the growth of the bacteria was visually determined based on turbidity to measure MIC in each bacterial strain.
Here, the glycopeptides used were VCM and TEIC. The β-lactam used was OXA.

For `NC1CCN(c2nc3c(cc2F)c(=O)c(C(=O)O)cn3-c2ccc(F)cc2F)C1` (centres unmarked) [TFLX, tosufloxacin tosylate], the MIC ([1]; FDA209P / MRSA / MSSA, FDA209P (MSSA), control, read-out: MIC) was ≤ 0.063 µg/mL, the MIC ([1]; MR5867 (MRSA), clinical isolate parent strain, no mutation) was ≤ 0.063 µg/mL and the MIC ([1]; MR5867-3, third-step mutant, further grlA S80F) was > 128 µg/mL. The MIC ([1]; MR5867-4, fourth-step mutant, further gyrA E88K) was > 128 µg/mL, the MIC ([1]; MS5935-1, first-step quinolone-resistant mutant, grlA S80F) was 1 µg/mL and the MIC ([1]; MS5935-2, second-step mutant, further gyrA S84L) was 64 µg/mL. For the same molecule, the MIC ([1]; MS5935-3, third-step mutant, further grlA E84K) was > 128 µg/mL, the MIC ([1]; MS5952-1, first-step quinolone-resistant mutant, grlA S80Y) was 2 µg/mL and the MIC ([1]; MS5952-3, third-step mutant, further grlA A116V) was > 128 µg/mL. It also gave an MIC ([2]; Staphylococcus aureus, 99/3700-W, VI-MRSA, The United Kingdom) of 8 µg/mL, an MIC ([2]; Staphylococcus aureus, 99/3759-V, VI-MRSA, The United Kingdom) of 16 µg/mL and an MIC ([2]; Staphylococcus aureus, 28160, VI-MRSA, South African Republic) of 32 µg/mL. The MIC ([2]; Staphylococcus aureus, 98141, VI-MRSA, France) was 32 µg/mL, the MIC ([2]; Staphylococcus aureus, A7 (JCSC4842), VI-MRSA, Taiwan) was 32 µg/mL and the MIC ([2]; Staphylococcus aureus, AMC11094, VI-MRSA, Korea) was > 128 µg/mL. For the same molecule, the MIC ([2]; Staphylococcus aureus, B7 (JCSC4852), VI-MRSA, Taiwan) was 16 µg/mL, the MIC ([2]; Staphylococcus aureus, BR1, VI-MRSA, Brazil) was 128 µg/mL and the MIC ([2]; Staphylococcus aureus, BR2, VI-MRSA, Brazil) was 32 µg/mL. The MIC ([2]; Staphylococcus aureus, BR3, VI-MRSA, Brazil) was 32 µg/mL, the MIC ([2]; Staphylococcus aureus, BR4, VI-MRSA, Brazil) was > 128 µg/mL and the MIC ([2]; Staphylococcus aureus, BR5, VI-MRSA, Brazil) was > 128 µg/mL. The MIC ([2]; Staphylococcus aureus, HIP06297, VI-MRSA, America) was 128 µg/mL, the MIC ([2]; Staphylococcus aureus, HIP06854, VI-MRSA, America) was 128 µg/mL and the MIC ([2]; Staphylococcus aureus, HIP07920, VI-MRSA, America) was 4 µg/mL. The MIC ([2]; Staphylococcus aureus, HIP07930, VI-MRSA, America) was > 128 µg/mL, the MIC ([2]; Staphylococcus aureus, HIP08926, VI-MRSA, America) was 128 µg/mL and the MIC ([2]; Staphylococcus aureus, HIP09143, VI-MRSA, America) was > 128 µg/mL. The MIC ([2]; Staphylococcus aureus, HIP09313, VI-MRSA, America) was 128 µg/mL, the MIC ([2]; Staphylococcus aureus, HIP09433, VI-MRSA, America) was > 128 µg/mL and the MIC ([2]; Staphylococcus aureus, HIP09662, VI-MRSA, America) was > 128 µg/mL. For the same molecule, the MIC ([2]; Staphylococcus aureus, HIP09735, VI-MRSA, America) was > 128 µg/mL, the MIC ([2]; Staphylococcus aureus, HIP09737, VI-MSSA, America) was > 128 µg/mL and the MIC ([2]; Staphylococcus aureus, HIP09740, VI-MRSA, America) was > 128 µg/mL. For the same molecule, the MIC ([2]; Staphylococcus aureus, HIP10267, VI-MRSA, America) was > 128 µg/mL, the MIC ([2]; Staphylococcus aureus, HIP10540, VI-MRSA, America) was 128 µg/mL and the MIC ([2]; Staphylococcus aureus, HIP12864, VI-MRSA, America) was > 128 µg/mL. The MIC ([2]; Staphylococcus aureus, HIP13036, VI-MRSA, America) was 64 µg/mL, the MIC ([2]; Staphylococcus aureus, HIP13057, VI-MRSA, America) was > 128 µg/mL and the MIC ([2]; Staphylococcus aureus, IL (HIP7737), VI-MRSA, America) was > 128 µg/mL. The MIC ([2]; Staphylococcus aureus, JCSC7193, VI-MRSA, Thailand) was 128 µg/mL, the MIC ([2]; Staphylococcus aureus, JCSC7195, VI-MRSA, Thailand) was > 128 µg/mL and the MIC ([2]; Staphylococcus aureus, JCSC7203, VI-MRSA, Thailand) was 128 µg/mL. The MIC ([2]; Staphylococcus aureus, LIM2, VI-MRSA, France) was > 128 µg/mL, the MIC ([2]; Staphylococcus aureus, LY-1999-01, VI-MSSA, Oman) was 8 µg/mL and the MIC ([2]; Staphylococcus aureus, LY-1999-03, VI-MRSA, Oman) was 32 µg/mL. The MIC ([2]; Staphylococcus aureus, MI (HIP5827), VI-MRSA, America) was 16 µg/mL, the MIC ([2]; Staphylococcus aureus, MRSA / MSSA / NRS 76 / VISA, NRS76, VI-MSSA, America) was > 128 µg/mL and the MIC ([2]; Staphylococcus aureus, MRSA / MSSA / NRS 79 / VISA, NRS79, VI-MRSA, America) was > 128 µg/mL. For the same molecule, the MIC ([2]; Staphylococcus aureus, MRSA / MSSA / NRS 118 / VISA, NRS118, VI-MRSA, America) was > 128 µg/mL, the MIC ([2]; Staphylococcus aureus, MRSA / MSSA / NRS 126 / VISA, NRS126, VI-MRSA, America) was 128 µg/mL and the MIC ([2]; Staphylococcus aureus, Mu3, VI-MRSA, Japan) was 16 µg/mL. For the same molecule, the MIC ([2]; Staphylococcus aureus, Mu50, VI-MRSA, Japan) was > 128 µg/mL, the MIC ([2]; Staphylococcus aureus, NJ (HIP5836), VI-MRSA, America) was 32 µg/mL and the MIC ([2]; Staphylococcus aureus, P1V44, VI-MSSA, Belgium) was 8 µg/mL. It also gave an MIC ([2]; Staphylococcus aureus, PC, VI-MRSA, America) of 128 µg/mL, an MIC ([2]; Staphylococcus aureus, SA MER-S6, VI-MSSA, France) of 0.25 µg/mL and an MIC ([2]; Staphylococcus aureus, SA MER-S12, VI-MSSA, France) of 0.25 µg/mL. The MIC ([2]; Staphylococcus aureus, SA MER-S20, VI-MSSA, France) was 1 µg/mL, the MIC (Enterococcus faecalis; E. faecalis 36-15672, quinolone-susceptible enterococci) was 0.5 µg/mL and the MIC (Enterococcus faecalis; E. faecalis 36-15673, quinolone-susceptible enterococci) was 0.5 µg/mL. For the same molecule, the MIC (Enterococcus faecalis; E. faecalis 36-15678, quinolone-susceptible enterococci) was 0.5 µg/mL, the MIC (Enterococcus faecalis; E. faecalis 36-15686, quinolone-resistant enterococci) was > 128 µg/mL and the MIC (Enterococcus faecalis; E. faecalis 36-15688, quinolone-susceptible enterococci) was ≤ 0.063 µg/mL. The MIC (Enterococcus faecalis; E. faecalis 36-15694, quinolone-resistant enterococci) was > 128 µg/mL, the MIC (Enterococcus faecalis; E. faecalis 36-15696, quinolone-susceptible enterococci) was 0.25 µg/mL and the MIC (Enterococcus faecalis; E. faecalis 36-15703, quinolone-resistant enterococci) was > 128 µg/mL. For the same molecule, the MIC (Enterococcus faecalis; E. faecalis 36-15716, quinolone-resistant enterococci) was > 128 µg/mL, the MIC (Enterococcus faecalis; E. faecalis 36-15718, quinolone-susceptible enterococci) was 0.25 µg/mL and the MIC (Enterococcus faecalis; E. faecalis 36-15720, quinolone-susceptible enterococci) was 0.5 µg/mL. The MIC (Enterococcus faecalis; E. faecalis 36-15722, quinolone-resistant enterococci) was > 128 µg/mL, the MIC (Enterococcus faecalis; E. faecalis 36-15726, quinolone-resistant enterococci) was > 128 µg/mL and the MIC (Enterococcus faecalis; E. faecalis 36-15730, quinolone-susceptible enterococci) was 0.5 µg/mL. For the same molecule, the MIC (Enterococcus faecalis; E. faecalis 36-15736, quinolone-susceptible enterococci) was 0.25 µg/mL, the MIC (Enterococcus faecalis; E. faecalis 36-15741, quinolone-susceptible enterococci) was 0.5 µg/mL and the MIC (Enterococcus faecalis; NCTC 12201 / VRE, E. faecalis NCTC12201, vancomycin-resistant (VRE), quinolone-susceptible enterococci) was 0.25 µg/mL. The MIC (Enterococcus faecalis; NCTC 12203 / VRE, E. faecalis NCTC12203, vancomycin-resistant (VRE), quinolone-susceptible enterococci) was 0.5 µg/mL, the MIC (VRSA clinical isolates; VRS1, VRSA, Michigan) was 4 µg/mL and the MIC (VRSA clinical isolates; VRS2, VRSA, Pennsylvania) was > 128 µg/mL. The MIC (VRSA clinical isolates; VRS3, VRSA, New York) was > 128 µg/mL, the MIC (VRSA clinical isolates; VRS4, VRSA, New York) was > 128 µg/mL and the MIC (VRSA clinical isolates; VRS5, VRSA, Michigan) was > 128 µg/mL. The MIC (VRSA clinical isolates; VRS6, VRSA, Michigan) was > 128 µg/mL and the MIC (VRSA clinical isolates; VRS7, VRSA, Michigan) was 4 µg/mL.

From US20120258980A1, “Antibacterial Agent for Drug-Resistant Bacteria, Method for Screening for Same, and Use of Same” (priority 2009, published 2012)
